Legend:
KDM4A = target: T1, KDM4A (Homo sapiens, UniProt O75164, A482E); test: High-content immunofluorescence (IF) assay, overexpressed full-length FLAG-tagged KDM in HeLa cells; assay type: cell-based; settings: HeLa cells transfected with KDM4A
T1 construct: transiently transfecting the full-length FLAG-tagged demethylase (WT) into cells; expressed in transfected cells; host or cells: HeLa
T1 sequence (O75164 1-1064 A482E): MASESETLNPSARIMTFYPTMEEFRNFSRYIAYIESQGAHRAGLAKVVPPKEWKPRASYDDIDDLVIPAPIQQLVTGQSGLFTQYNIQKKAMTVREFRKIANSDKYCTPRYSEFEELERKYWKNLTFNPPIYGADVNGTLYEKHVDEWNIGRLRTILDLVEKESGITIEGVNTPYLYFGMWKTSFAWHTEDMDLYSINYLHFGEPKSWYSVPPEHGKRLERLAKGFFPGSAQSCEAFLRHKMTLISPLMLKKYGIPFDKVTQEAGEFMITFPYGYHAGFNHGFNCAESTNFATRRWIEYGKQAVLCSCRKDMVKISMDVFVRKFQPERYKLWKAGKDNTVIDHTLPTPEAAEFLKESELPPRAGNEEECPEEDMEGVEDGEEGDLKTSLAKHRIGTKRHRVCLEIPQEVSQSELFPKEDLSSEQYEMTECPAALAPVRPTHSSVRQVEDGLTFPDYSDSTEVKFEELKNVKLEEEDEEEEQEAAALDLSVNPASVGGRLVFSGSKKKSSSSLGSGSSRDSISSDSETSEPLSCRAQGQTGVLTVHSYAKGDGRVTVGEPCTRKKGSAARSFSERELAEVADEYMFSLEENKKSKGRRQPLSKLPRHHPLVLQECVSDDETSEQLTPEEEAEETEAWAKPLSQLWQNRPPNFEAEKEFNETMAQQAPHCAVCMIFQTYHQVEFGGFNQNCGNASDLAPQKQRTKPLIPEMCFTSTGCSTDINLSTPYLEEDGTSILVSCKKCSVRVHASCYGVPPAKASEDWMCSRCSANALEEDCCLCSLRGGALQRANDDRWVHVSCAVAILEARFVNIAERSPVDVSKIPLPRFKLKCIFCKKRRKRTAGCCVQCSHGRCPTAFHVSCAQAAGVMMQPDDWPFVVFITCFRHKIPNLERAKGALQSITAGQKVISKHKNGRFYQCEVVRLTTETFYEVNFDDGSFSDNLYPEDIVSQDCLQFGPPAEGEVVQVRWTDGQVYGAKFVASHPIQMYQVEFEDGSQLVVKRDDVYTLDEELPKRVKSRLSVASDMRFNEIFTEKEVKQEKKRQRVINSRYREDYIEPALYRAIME

KDM3A = target: T2, KDM3A (Homo sapiens, UniProt Q9Y4C1); test: as above; assay type: cell-based; settings: HeLa cells overexpressing WT KDM3A, H3K9me2 mark, 24 h; read-out: KDM3A, in cells, EC50 by IF assay (head: IC50)
T2 sequence (Q9Y4C1 1-1321): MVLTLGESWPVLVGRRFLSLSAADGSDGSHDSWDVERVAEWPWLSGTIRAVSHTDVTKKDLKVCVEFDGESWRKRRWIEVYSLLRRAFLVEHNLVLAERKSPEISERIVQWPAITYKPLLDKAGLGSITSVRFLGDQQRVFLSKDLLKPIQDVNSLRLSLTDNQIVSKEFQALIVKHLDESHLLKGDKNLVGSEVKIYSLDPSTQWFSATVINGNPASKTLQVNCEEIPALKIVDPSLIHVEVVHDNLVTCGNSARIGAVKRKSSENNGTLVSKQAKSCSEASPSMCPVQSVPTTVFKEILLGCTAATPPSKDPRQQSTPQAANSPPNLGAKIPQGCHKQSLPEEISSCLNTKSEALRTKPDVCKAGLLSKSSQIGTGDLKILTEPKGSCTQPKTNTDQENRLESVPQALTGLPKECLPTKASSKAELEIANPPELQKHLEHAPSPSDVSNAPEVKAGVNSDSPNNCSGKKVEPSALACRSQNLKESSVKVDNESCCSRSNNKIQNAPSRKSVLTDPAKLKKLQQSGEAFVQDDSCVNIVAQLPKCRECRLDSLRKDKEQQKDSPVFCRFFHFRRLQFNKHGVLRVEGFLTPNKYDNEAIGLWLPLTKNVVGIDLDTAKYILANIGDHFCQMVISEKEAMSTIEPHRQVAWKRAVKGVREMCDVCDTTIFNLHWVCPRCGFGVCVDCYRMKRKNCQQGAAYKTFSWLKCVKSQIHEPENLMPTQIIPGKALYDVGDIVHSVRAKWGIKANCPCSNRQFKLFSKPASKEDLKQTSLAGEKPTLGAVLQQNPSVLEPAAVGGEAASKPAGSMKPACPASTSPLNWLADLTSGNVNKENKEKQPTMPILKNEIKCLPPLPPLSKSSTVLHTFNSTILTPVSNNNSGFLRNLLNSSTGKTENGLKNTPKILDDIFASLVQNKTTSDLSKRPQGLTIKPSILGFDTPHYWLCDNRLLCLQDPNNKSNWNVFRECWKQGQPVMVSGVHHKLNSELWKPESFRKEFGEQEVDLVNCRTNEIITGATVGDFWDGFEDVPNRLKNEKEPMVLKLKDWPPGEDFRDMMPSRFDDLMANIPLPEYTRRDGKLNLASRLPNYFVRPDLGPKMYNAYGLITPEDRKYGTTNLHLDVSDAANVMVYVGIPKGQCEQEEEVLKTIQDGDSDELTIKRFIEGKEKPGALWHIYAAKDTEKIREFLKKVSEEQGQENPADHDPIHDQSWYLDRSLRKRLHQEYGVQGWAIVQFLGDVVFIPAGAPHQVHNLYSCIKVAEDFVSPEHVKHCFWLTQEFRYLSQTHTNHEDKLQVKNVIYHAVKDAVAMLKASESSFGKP

Row | Compound | Effect on H3K9me3 levels in KDM4A IF assay, in words (KDM4A) | EC50 (KDM3A)
1 | O=c1[nH]cnc2c(-n3cc(CCN4CCC(c5cccc(Cl)c5)CC4)cn3)cccc12 [CCT366293, 8-(4-(2-(4-(3-Chlorophenyl)piperidin-1-yl)ethyl)-1H-pyrazol-1-yl)quinazolin-4(3H)-one] | no effect | –
2 | CCN(CCN(C)C)C(=O)CNCc1cncc(C(N)=O)c1 [KDOAM-32] | – | > 100 µM

Reference: article PMC5333395, “Assessing histone demethylase inhibitors in cells: lessons learned” (Epigenetics & Chromatin, 2017)
